Columns and labels:
[1] = Stability of MTAs in liquid solvents (degradation rate); format: physicochemical
Protocol: Liquid solvents were also tested for their ability to stabilize representative MTAs SkQ1 and SkQR1. The solvents tested were water solutions of glycerol (10% to 100%), 50% lactulose, and 1,2-propylene glycol (10% to 100%, at 60° C.). Some representative results are shown below (Table 1).

[2] = system: alloxan diabetes; assay: Alloxan diabetes, blood glucose level (glucose oxidase method); format: in vivo, rats; conditions: 250 nM SkQ1 in drinking water (approx. 50 nmol/kg per day) 10 d before and 14 d after alloxan 100 mg/kg s.c.; 2 weeks after alloxan
Protocol: Induction of the alloxan diabetes was performed as follows: Two groups of laboratory rats (20 animals in each group) with free food and water access fed a 250 nM solution of SkQ1 for 10 d. The daily rat consumption was 60 ml water solution (containing 15 nmoles SkQ1). The average weight of rats was 300 g. Thus, rats consumed approximately 50 nmol/kg body weight per day. […] After 10 d, rats were subcutaneously (in the area of the thigh) injected with alloxan dissolved in isotonic salt solution of 0.9% w/v of NaCl (100 mg/kg body weight; groups “Alloxan+SkQ1” and “Alloxan.” Control animals were injected with salt solution without alloxan (groups “Control+SkQ1” and “Control”). After injection, the rats continued to drink water containing SkQ1 (250 nM) during 14 d (group “Alloxan+SkQ1”) or were kept without SkQ1 (group “Alloxan”). Data on glucose blood level was measured by the glucose oxidase method ([…] et al. (1958) J. Lab. Clin. Med., 51:445-460) after 2 weeks of alloxan injection. All data are presented as the mean+/-SE.

[3] = system: human endothelial cells EA.hy926; assay: TNF-α induced death of endothelial cells (MTT test); format: cell-based; conditions: 2 nM pre-incubation 4 d; TNF-α 0.25 to 50 ng/ml for 2 d
Protocol: Human endothelial cell line EA.hy926 (ATCC Collection; catalog number CRL-2922) was used as a model of vascular endothelium. This cell line is similar to primary HUVEC cell line (Edgell et al. (1983) PNAS, 80(12):3734-7; Edgell et al. (1990) In Vitro Cell Dev Biol., 26(12):1167-72) and widely used as a relevant model for inflammation studies (Riesbeck et al. (1998) Clin. Vaccine Immunol., 5:5675-682).
Accordingly, human endothelial cells EA.hy926 were pre-incubated with 0.2 nM SkQR1 or 2 nM SkQ1 solution in Dulbecco's Modified Eagle's Medium (DMEM) supplemented with 10% of fetal serum (Example 1) for 4 d. After that the cells were incubated overnight with fresh DMEM medium with 0.2% of fetal serum. The cells were incubated 2 d with TNF-α (0.25 ng/ml to 50 ng/ml) and cell death was monitored using standard MTT test (Berridge et al. (1996) Biochemica, 4:14-9). The data from this assay is shown as means±S.E. at least for 3 separate experiments.

[4] = system: ICAM-1 mRNA expression; assay: ICAM-1 mRNA expression induced by TNF-α in EAhy926 cells (real-time PCR); format: cell-based, human; conditions: 0.2 nM for 4 d; TNF-α 0.05 ng/ml for 4 h
From the text: (§1) The effects of SkQ1 on ICAM-1 mRNA expression and cytokines (IL-6, IL-8) protein secretion induced by TNF-α in EAhy926 human endothelial cells (ATCC collection; catalog number CRL-2922) were examined. TNF-α is a central proinflammatory cytokine stimulating expression of cell adhesion molecules and many inflammatory cytokines. Anti-inflammatory properties of many drugs often rely on their ability to inhibit expression of pro-inflammatory cytokines induced by TNF-α using EAhy926 endothelial cells (Edgell et al. (1983) Proc. Natl. Acad. Sci. USA, 80:3734-7; Lombardi et al. (2009) Eur. J. Cell. Biol., 88:731-42; Manea et al. (2010) Cell Tissue Res., 340:71-9).
(§2) 300,000 cells were plated on 60 mm^2 culture dishes and after attachment were treated with an SkQ1 solution (0.2 nM in DMEM medium with 10% fetal serum) for 4 d, and then stimulated with TNF-α (0.05 ng/ml for 4 h for ICAM-1 or 5 ng/ml for 15 h for cytokines, respectively). ICAM-1 mRNA expression was determined by real-time PCR (Okada et al. (2005) Invest. Ophtalmol. Vis. Sci., 46:4512-8). Secretion of IL-6 and IL-8 was evaluated by ELISA (Toma et al. (2009) Biochem. Biophys. Res. Commun., 390:877-82; Volanti et al. (2002) Photochem. Photobiol., 75:36-45.) The data is shown as means±S.E. at least for 3 separate experiments.

[5] = system: cytokines (IL-6, IL-8) protein secretion; assay: IL-6, IL-8 protein secretion induced by TNF-α in EAhy926 cells (ELISA); format: cell-based, human; conditions: 0.2 nM for 4 d; TNF-α 5 ng/ml for 15 h
From the text: as §1, §2

[6] = system: endothelial cells; assay: TNFα-caused dysfunction of endothelial barrier (microscopy of VE-cadherin, beta-cathenin, F-actin); format: cell-based

Compound: CC1=C(C)C(=O)C(CCCCCCCCCC[P+](c2ccccc2)(c2ccccc2)c2ccccc2)=CC1=O [SkQ1]
- Degradation rate, percent per day ([1]; 400 mkM in 10% 1,2-propylene glycol, at 60° C.): 0.47 percent per day
- Degradation rate, percent per day ([1]; 400 mkM in 10% Glycerol): 0.61 percent per day
- Degradation rate, percent per day ([1]; 400 mkM in 20% Glycerol): 0.51 percent per day
- Degradation rate, percent per day ([1]; 400 mkM in 30% Glycerol): 0.53 percent per day
- Degradation rate, percent per day ([1]; 400 mkM in 40% Glycerol): 0.91 percent per day
- Degradation rate, percent per day ([1]; 400 mkM in 50% 1,2-propylene glycol, at 60° C.): 0.06 percent per day
- Degradation rate, percent per day ([1]; 400 mkM in 50% Glycerol): 1.54 percent per day
- Degradation rate, percent per day ([1]; 400 mkM in 50% lactulose): 9.01 percent per day
- Degradation rate, percent per day ([1]; 400 mkM in 60% Glycerol): 1.92 percent per day
- Degradation rate, percent per day ([1]; 400 mkM in 70% Glycerol): 2.4 percent per day
- Degradation rate, percent per day ([1]; 400 mkM in 80% Glycerol): 3.2 percent per day
- Degradation rate, percent per day ([1]; 400 mkM in 90% Glycerol): 4.18 percent per day
- Degradation rate, percent per day ([1]; 400 mkM in 100% 1,2-propylene glycol, at 60° C.): 0.18 percent per day
- blood glucose, lower compared to animals without SkQ1 treatment [2]: about 2 fold
- cell death compared to control without MTA [3]: greatly reduced
- expression of ICAM-1 [4]: prevents excessive expression
- expression of inflammatory cytokines (IL-6, IL-8) [5]: prevents excessive expression
- disassembling of intracellular contacts and cytoskeleton reorganization caused by TNFα [6]: prevented

Reference: patent US9572890B2, “Oral formulations of mitochondrially-targeted antioxidants and their preparation and use” (MITOTECH SA, priority 2011, dated 2017)
